Reference: patent publication US12577231B2, “Androgen receptor PROTACS” (GlaxoSmithKline Intellectual Property Development Limited, priority 2023, dated 2026)
Substitutions are numbered along the chain they refer to.

Tests used:
[1] = target: T1, Androgen Receptor, MDA-PCa-2b (AR T878A/L702H) (Homo sapiens, UniProt P10275, L702H/T878A); test: Androgen Receptor Degradation-Imaging Assay, MDA-PCa-2b cell line; format: cell-based; conditions: 16 hours treatment, maximum observed degradation
T1 construct: host or cells: MDA-PCa-2b
T1 sequence (P10275 1-920 L702H/T878A): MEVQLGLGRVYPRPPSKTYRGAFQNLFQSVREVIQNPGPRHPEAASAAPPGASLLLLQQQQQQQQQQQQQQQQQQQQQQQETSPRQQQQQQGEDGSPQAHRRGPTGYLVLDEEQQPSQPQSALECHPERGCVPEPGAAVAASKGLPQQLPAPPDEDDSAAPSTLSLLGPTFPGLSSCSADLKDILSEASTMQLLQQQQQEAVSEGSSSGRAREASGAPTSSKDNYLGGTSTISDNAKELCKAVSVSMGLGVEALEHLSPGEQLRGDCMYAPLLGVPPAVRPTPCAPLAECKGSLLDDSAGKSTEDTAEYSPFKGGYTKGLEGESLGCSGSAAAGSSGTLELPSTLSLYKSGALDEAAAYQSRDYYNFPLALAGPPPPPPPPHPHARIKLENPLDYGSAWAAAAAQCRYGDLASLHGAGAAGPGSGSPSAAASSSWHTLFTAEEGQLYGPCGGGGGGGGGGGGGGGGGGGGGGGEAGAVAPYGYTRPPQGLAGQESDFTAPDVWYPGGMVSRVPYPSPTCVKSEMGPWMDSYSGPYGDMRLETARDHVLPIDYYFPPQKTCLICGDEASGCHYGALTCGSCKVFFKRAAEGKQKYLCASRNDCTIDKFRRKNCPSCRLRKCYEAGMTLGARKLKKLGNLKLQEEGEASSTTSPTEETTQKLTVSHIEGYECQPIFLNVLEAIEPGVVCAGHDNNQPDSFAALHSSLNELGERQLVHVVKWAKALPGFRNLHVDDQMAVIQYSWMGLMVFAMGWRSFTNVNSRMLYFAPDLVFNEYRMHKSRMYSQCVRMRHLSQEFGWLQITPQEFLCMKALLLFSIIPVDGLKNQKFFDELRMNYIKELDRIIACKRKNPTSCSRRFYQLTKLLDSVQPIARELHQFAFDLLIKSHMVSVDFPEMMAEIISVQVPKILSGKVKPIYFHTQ
Experimental: (§1) Degradation of Androgen Receptor (AR) protein in human prostate cancer cell lines (MDA-PCa-2b (AR T878A/L702H), LNCaP (AR T878A), VCaP (AR wild type and amplified) 22RV1 (AR H875Y) and PC3 (AR negative control)) treated with AR PROTACs was quantified using immunofluorescence. Prostate cancer cells were plated (MDA-PCa-2b, and VCaP 16,000 cells/well; LNCaP and 22RV1 32,000 cells/well, and PC3 8,000 cells/well) in an optical bottom 96-well cell culture plate and allowed to attach overnight. The prostate cancer cell lines were treated for 16 hours with a 10-point 3-fold dilution series (dose range=0.02 nM to 333 nM). PC3 is included as an AR negative control and not treated with compound. Cells are fixed and permeabilized with 4% formaldehyde, blocked with 10% goat serum in immunofluorescence (IF) buffer (130 mM NaCl, 7 mM Na2HPO4, 3.5 mM NaH2PO4, 7.7 mM NaN3, 0.1% BSA, 0.2% Triton X, 0.05% Tween 20) prior to overnight incubation with rabbit antibody specific for C terminus of AR (commercially available from RevMaB Biosciences). Following washes with IF buffer, cells were incubated with fluorescent secondary antibody (Goat anti-rabbit Alexa 647; commercially available from Invitrogen) and Hoechst nuclear stain (commercially available from Themo Scientific) prior to quantification of nuclear AR levels via Opera Phenix high-content fluorescent imager using a 40× water objective. Image analysis was performed with Harmony software.
(§2) The averaged nuclear Alexa 647 median fluorescence intensity (MFI) of PC3 cells is subtracted from the nuclear Alexa 647 MFI of PROTAC treated and DMSO control treated cells. % AR remaining is calculated for PROTAC treatments as a percent of the DMSO control (MFI PROTAC treated/MFI DMSO control treated)*100). DC50 and the Dmax values, were obtained from these normalised values fitted with a 4-parameter sigmoidal response curve (Xlfit software). The DC50 is the interpolated concentration of PROTAC corresponding to 50% of the protein being degraded, and the Dmax parameter is the maximum experimentally observed degradation.

[2] = target: T2, Androgen Receptor, VCaP (AR wild type and amplified) (Homo sapiens, UniProt P10275); test: Androgen Receptor Degradation-Imaging Assay, VCaP cell line; format: cell-based; conditions: 16 hours treatment, maximum observed degradation
T2 construct: endogenous in cells; host or cells: VCaP
T2 sequence (P10275 1-920): T1 sequence (P10275 1-920 L702H/T878A) with H702L, A878T
Experimental: as §1, §2

| Compound | Dmax [1] | Dmax [2] |
| --- | --- | --- |
| COc1cc(O[C@H]2C(C)(C)[C@H](NC(=O)c3ccc(N4CCC(CN5CCC(n6ccc7c(N8CCC(=O)NC8=O)cccc76)CC5)CC4)cc3)C2(C)C)ccc1C#N [Example 16, N-((1r,3r)-3-(4-Cyano-3-methoxyphenoxy)-2,2,4,4-tetramethylcyclobutyl)-4-(4-((4-(4-(2,4-dioxotetrahydropyrimidin-1(2H)-yl)-1H-indol-1-yl)piperidin-1-yl)methyl)piperidin-1-yl)benzamide] | ≥ 80% | ≥ 80% |
| CC1(C)[C@H](NC(=O)c2ccc(N3CCC(CN4CCC(n5ncc6c(N7CCC(=O)NC7=O)cccc65)CC4)CC3)c(F)c2)C(C)(C)[C@H]1Oc1ccc(C#N)c2c1CCCO2 [Example 8, N-((1r,3r)-3-((8-Cyanochroman-5-yl)oxy)-2,2,4,4-tetramethylcyclobutyl)-4-(4-((4-(4-(2,4-dioxotetrahydropyrimidin-1(2H)-yl)-1H-indazol-1-yl)piperidin-1-yl)methyl)piperidin-1-yl)-3-fluorobenzamide] | ≥ 80% | ≥ 80% |
| CC1(C)[C@H](NC(=O)c2ccc(N3CCC(CN4CCC(n5ccc6c(N7CCC(=O)NC7=O)ncnc65)CC4)CC3)cc2)C(C)(C)[C@H]1Oc1ccc(C#N)c2ncccc12 [Example 28, N-((1r,3r)-3-((8-Cyanoquinolin-5-yl)oxy)-2,2,4,4-tetramethylcyclobutyl)-4-(4-((4-(4-(2,4-dioxotetrahydropyrimidin-1(2H)-yl)-7H-pyrrolo[2,3-d]pyrimidin-7-yl)piperidin-1-yl)methyl)piperidin-1-yl)benzamide] | ≥ 80% | ≥ 80% |
| COc1c(C#N)ccc(O[C@H]2C(C)(C)[C@H](NC(=O)c3ccc(N4CCC(CN5CCC(n6ncc7c(N8CCC(=O)NC8=O)cccc76)CC5)CC4)c(F)c3)C2(C)C)c1C [Example 5, N-((1r,3r)-3-(4-Cyano-3-methoxy-2-methylphenoxy)-2,2,4,4-tetramethylcyclobutyl)-4-(4-((4-(4-(2,4-dioxotetrahydropyrimidin-1(2H)-yl)-1H-indazol-1-yl)piperidin-1-yl)methyl)piperidin-1-yl)-3-fluorobenzamide] | ≥ 80% | ≥ 80% |

Other lines, results leading:

| Dmax [1] | Dmax [2] | Compound |
| --- | --- | --- |
| ≥ 80% | ≥ 80% | CC1(C)[C@H](NC(=O)c2ccc(N3CCC(CN4CCC(n5ccc6c(N7CCC(=O)NC7=O)c(F)ccc65)CC4)CC3)c(F)c2)C(C)(C)[C@H]1Oc1ccc(C#N)c2ncccc12 [Example 51, N-((1r,3r)-3-((8-Cyanoquinolin-5-yl)oxy)-2,2,4,4-tetramethylcyclobutyl)-4-(4-((4-(4-(2,4-dioxotetrahydropyrimidin-1(2H)-yl)-5-fluoro-1H-indol-1-yl)piperidin-1-yl)methyl)piperidin-1-yl)-3-fluorobenzamide] |
| ≥ 80% | ≥ 80% | CC1(C)[C@H](NC(=O)c2ccc(N3CCC(O)(CN4CCC(n5ncc6c(N7CCC(=O)NC7=O)cccc65)CC4)CC3)c(F)c2)C(C)(C)[C@H]1Oc1ccc(C#N)c2ncccc12 [Example 48, N-((1r,3r)-3-((8-Cyanoquinolin-5-yl)oxy)-2,2,4,4-tetramethylcyclobutyl)-4-(4-((4-(4-(2,4-dioxotetrahydropyrimidin-1(2H)-yl)-1H-indazol-1-yl)piperidin-1-yl)methyl)-4-hydroxypiperidin-1-yl)-3-fluorobenzamide] |
| ≥ 80% | ≥ 80% | CC1(C)[C@H](NC(=O)c2ccc(N3CCC(CN4CCC(n5ncc6c(N7CCC(=O)NC7=O)ccnc65)CC4)CC3)c(F)c2)C(C)(C)[C@H]1Oc1ccc(C#N)c2ncccc12 [Example 40, N-((1r,3r)-3-((8-Cyanoquinolin-5-yl)oxy)-2,2,4,4-tetramethylcyclobutyl)-4-(4-((4-(4-(2,4-dioxotetrahydropyrimidin-1(2H)-yl)-1H-pyrazolo[3,4-b]pyridin-1-yl)piperidin-1-yl)methyl)piperidin-1-yl)-3-fluorobenzamide] |
| ≥ 80% | ≥ 80% | CC1(C)[C@H](NC(=O)c2cc(F)c(N3CCC(CN4CCC(n5ncc6c(N7CCC(=O)NC7=O)cccc65)CC4)CC3)c(F)c2)C(C)(C)[C@H]1Oc1ccc(C#N)c2ncccc12 [Example 30, N-((1r,3r)-3-((8-Cyanoquinolin-5-yl)oxy)-2,2,4,4-tetramethylcyclobutyl)-4-(4-((4-(4-(2,4-dioxotetrahydropyrimidin-1(2H)-yl)-1H-indazol-1-yl)piperidin-1-yl)methyl)piperidin-1-yl)-3,5-difluorobenzamide] |
